According to patent publication US20120213860A1, “XENON-BASED INHALABLE DRUG FOR TREATING OR PREVENTING INDUCED DYSKINESIA” (L'Air Liquide Societe Anonyme Pour L'Etude Et …, priority 2009, published 2012):

Test system: dyskinesias induced by levodopa
Assay: levodopa-induced abnormal involuntary movements (AIMs) in rats with unilateral 6-OHDA lesions (animal model of Parkinson's disease)
Type: in vivo, Sprague-Dawley rats
Description: More precisely, the effects of administering several gases as treatment of dyskinesias were evaluated in rats having lesions produced by unilateral injection of 6-OHDA (6-hydroxydopamine, a powerful neurotoxic) in an ascending nigrostriatal pathway (animal model of Parkinson's disease). In this model, long-term treatment of rats with levodopa induces abnormal involuntary movements (AIMs) that are similar to those in dyskinesias induced by levodopa in humans. The rats with lesions induced by 6-OHDA serving as the model of Parkinson's disease are prepared as follows. 16 Sprague-Dawley rats weighing between 250 and 300 g are kept in a room with controlled temperature (about 22° C.) with day/night cycles of 12 h, with free access to food and water. The animals receive, 30 min before the intervention, an intraperitoneal injection of pargyline (5 mg/kg; inhibitor of monoamine oxidase-B) and of desipramine (25 mg/kg; norepinephrine reuptake inhibitor). The animals are put in an anesthesia chamber with continuous flow of oxygen at 1.5 l/minute and 3% isoflurane. After anesthesia, the animals are placed in a stereotaxic frame. […] The injection site is localized according to the coordinates relative to bregma: −2.8 mm rostral, 2 mm lateral and 9 mm under the cranium (Paxinos and Watson, 1986). The rats are left to recover for 3 weeks after the lesions. The animals receive 0.05 mg/kg s.c. of apomorphine. […] The animals that remain receive an administration of 6 mg/kg of levodopa and 15 mg/kg of benzerazide (i.p.), twice a day, for 21 consecutive days. During these 21 days, the abnormal involuntary movements (AIMs) are assessed on days 1, 7, 14 and 21. The therapeutic treatments begin on day 22. They consist of administering the following to the rats by inhalation: • xenon/O2 gas mixtures (50%/50% by volume) as test gas according to the invention and; • N2/O2 gas mixtures (50%/50% by volume) as control. The gas mixtures are premixtures supplied by Air Liquide™. The gas concentrations are monitored continuously. Exposure to the gases is effected in a Plexiglas chamber with a length of 42 cm, and width and height of 26 cm. Each time, 4 or 5 rats are put in the chamber and inhale the test gas for 1 h. The chamber is supplied with fresh gas at a flow rate of 4 l/min. The abnormal involuntary movements (AIMs) are assessed for 180 min after injection of levodopa. More precisely, the animals are put in boxes (22 cm×34 cm×20 cm) and are left there for 15 minutes for them to become accustomed to their environment. Levodopa methyl ester (6 mg/kg, i.p.) is then administered at time intervals of 1 minute between rats. Each rat is observed for 1 minute at intervals of 30 minutes after injection and for a period of 180 min. Four subtypes of AIMs are assessed, namely: • Locomotor (Lo): increased movements contralateral to the lesion, • Hind limbs (Li): uncontrolled random movements of the hind limbs contralateral to the lesion, • Orolingual (Ol): excessive mastication and jaw movements with tongue protrusion, • Axial (Ax): dystonic postures or choreiform twisting of the neck and of the upper body contralaterally. The severity of the MIAs is scored from 1 to 4 according to the duration of the MIAs over an observation period of one minute: • 0.1=presence of MIAs for less than 30 s • 0.2=presence of MIAs for more than 30 s • 0.3=presence of MIAs during the minute with interruption by external stimuli • 0.4=presence of MIAs during the minute without interruption by external stimuli

[1] = parkinsonian rat, xenon/O2 50%/50% by volume inhaled 1 h, vs control N2/O2 50%/50%, amplitude and duration
[2] = parkinsonian rat, xenon/O2 50%/50% inhaled, vs control N2/O2

`[Xe]` [xenon] was tested, and the “appearance of the 4 types of dyskinesias (Lo, Li, Ol, Ax)” value (animals breathing xenon/O2 (50%/50% by volume), amplitude and duration) was “greatly reduced”, the “axial dyskinesias (Ax), kinetics following administration of L-Dopa (FIG. 3A)” value [1] was “clear decrease” and the “hind limb dyskinesias (Li), kinetics following administration of L-Dopa (FIG. 4A)” value [1] was “significant decrease”. For the same compound, the “locomotor dyskinesias (Lo), kinetics following administration of L-Dopa (FIG. 6A)” value [1] was “large decrease”, the “orolingual dyskinesias (Ol), kinetics following administration of L-Dopa (FIG. 5A)” value [1] was “clear decrease” and the “mean value of hind limb dyskinesias (Li) from 60 to 180 min (FIG. 4B)” value [2] was “fewer hind limb dyskinesias”. The “mean value of locomotor dyskinesias from 60 to 180 min (FIG. 6B)” value [2] was “fewer locomotor dyskinesias”, the “mean value of orolingual dyskinesias (Ol) from 60 to 180 min (FIG. 5B)” value [2] was “fewer orolingual dyskinesias” and the “mean value of the axial dyskinesias from 60 to 180 min (FIG. 3B)” value [2] was “fewer axial dyskinesias”.
